Experimental data published in paper PMC5831858, “Pharmacological characterisation of CR6086, a potent prostaglandin E2 receptor 4 antagonist, as a new potential disease-modifying anti-rheumatic drug” (Arthritis Research & Therapy, 2018).

What was measured:
[1] = system: arthritic mice (collagen-induced arthritis model); test: CIA in mice, second study: serum cytokines and signal limb histology; assay type: in vivo, mouse; settings: 60 mg/kg oral daily, 10 days; mean ± SEM
IL-17 release = IL-17 release from human Th17 cells; assay type: cell-based; settings: 1–10 μM
Protocol: PBMCs were purified using Histopaque. CD4^+CD45^+ naive T cells were indirectly selected in a magnetic field (MACS; Miltenyi Biotec). Purified CD4^+ cells were subsequently cultured for 7 days in differentiation medium (RPMI 1640 + FBS 10%, IL-6 30 ng/ml, transforming growth factor [TGF]-β 2.25 ng/ml, IL-23 30 ng/ml, IL-1β 20 ng/ml, anti-interferon (IFN)-γ 1 ng/ml and anti-IL-4 2.5 ng/ml). Th17 cell expansion was stimulated by addition of anti-CD3/[…]anti-CD28 beads to the medium with a cell-to-beads ratio of 1:2. Th17 cells were stimulated with IL-6 30 ng/ml, TGF-β 2.25 ng/ml, IL-23 30 ng/ml, IL-1β 20 ng/ml and PGE2 10 nM for 48 h in the presence of CR6086 (0.03–10 μM) or naproxen (1–10 μM). IL-17 release was measured by ELISA (Abcam, Cambridge, UK).

[2] = system: arthritic mice (collagen-induced arthritis model); test: FACS analysis of cell populations in the joint, CIA mice; assay type: in vivo, mouse; settings: CR6086 60 mg/kg, naproxen 60 mg/kg, etanercept 10 mg/kg, mean ± SEM
Protocol: (§1) In a first study, mice were randomised into the following treatment groups: vehicle, 30 mg/kg CR6086, 60 mg/kg CR6086, 60 mg/kg naproxen and 10 mg/kg etanercept. Animals received the test drugs for 10 days. CR6086 and naproxen were administered orally once daily, whereas etanercept was administered intraperitoneally every other day. Animals treated with vehicle, 60 mg/kg CR6086, naproxen and etanercept were additionally analysed for the proportion of populations of Th17 cells, Th1 cells, regulatory T cells, B cells, macrophages, neutrophils and dendritic cells by fluorescence-activated cell sorting (FACS) after collection of blood, draining lymph nodes and joints.

[3] = system: arthritic mice (collagen-induced arthritis model); test: CIA in mice, first study: clinical score and paw swelling; assay type: in vivo, mouse; settings: 10 days; CR6086 30 and 60 mg/kg, naproxen 60 mg/kg oral once daily; etanercept 10 mg/kg i.p. every other day
Protocol: Male DBA/1 mice were immunised by intradermal injection at the base of the tail with an emulsion of 200 μg of bCII in CFA containing 3 mg/ml Mycobacterium tuberculosis. Non-immunised mice served as the negative control of disease. Animals were monitored by visual inspection for appearance of peripheral oedema. […] Upon onset, animals were recruited and randomised. Recruitment was given a cut-off at day 40. Upon recruitment, arthritis clinical score was assigned, and oedema was measured via caliper.
as §1
Oedema measurement was performed every day before treatment, and all animals were blindly scored for clinical signs of arthritis as follows: 0 = normal; 1 = slight swelling and/or erythema; 2 = pronounced oedematous swelling; and 3 = ankyloses and severe swelling. A score of 0.5 was given to swollen toe/toes or when inflammation was localised to one part of the foot. Each limb was measured separately, with a final score based on the sum of the scores from all four paws.

IL-23 release = IL-23 release from human dendritic cells; assay type: cell-based; settings: Dendritic cell, at 10 μM, read-out: inhibition of IL-23 release (plateau)
Protocol: PBMCs were purified using Histopaque (Sigma-Aldrich, St. Louis, MO, USA). CD14^+ cells were positively selected in a magnetic field (magnetic-activated cell sorting [MACS]; Miltenyi Biotec, Bergisch Gladbach, Germany). Purified CD14^+ cells were subsequently cultured for 7 days in differentiation medium (RPMI 1640 + 10% FBS, granulocyte-macrophage colony-stimulating factor 50 ng/ml and IL-4 100 ng/ml) and then stimulated with LPS (10 ng/ml), R848 2.5 μg/ml and PGE2 10 nM for 24 h in the presence of CR6086 (0.01–30 μM) or naproxen (1–30 μM). IL-23 release was measured by enzyme-linked immunosorbent assay (ELISA) (R&D Systems, Minneapolis, MN, USA).

rat arthritis models = system: rat arthritis models; design: method as in FDA pharmacological review; settings: ref FDA pharmacological review; cited from earlier work
mouse arthritis models = system: mouse arthritis models; design: method as in FDA pharmacological review; settings: ref FDA pharmacological review; cited from earlier work

SMILES	IFNγ serum concentration [1] [pg/mL]	IL-10 serum concentration [1] [pg/mL]	IL-17 serum concentration [1] [pg/mL]	TNFα serum concentration [1] [pg/mL]	effect on IL-17 release (IL-17 release)	B cells, Percentage of total cells [2] [%]	Dendritic cells, Percentage of total cells [2] [%]	Macrophages, Percentage of total cells [2] [%]	Neutrophils, Percentage of total cells [2] [%]	Th1, Percentage of total cells [2] [%]	Th17, Percentage of total cells [2] [%]	Treg, Percentage of total cells [2] [%]	effect on disease parameters (visual clinical score, paw swelling) vs vehicle [3]	inhibition at 10 µM (IL-23 release) [%]	potency in rat arthritis models (rat arthritis models) [mg/kg]	potency in mouse arthritis models (mouse arthritis models) [mg/kg]
COc1ccc2cc([C@H](C)C(=O)O)ccc2c1 [Naproxen, naproxen, reference compound]	3.48 ± 1.10	16.21 ± 2.23	2.58 ± 0.43	43.01 ± 4.55	inactive	5.77 ± 1.16	1.96 ± 0.48	16.31 ± 4.44	16.47 ± 4.48	0.35 ± 0.07	0.21 ± 0.08	0.63 ± 0.22	ineffective	~50		
C[C@@H]1CCN(C(=O)CC#N)C[C@@H]1N(C)c1ncnc2[nH]ccc12 [tofacitinib]															6.2	50
